The values below come from article PMC6382696, “Drug Repurposing: The Anthelmintics Niclosamide and Nitazoxanide Are Potent TMEM16A Antagonists That Fully Bronchodilate Airways” (Frontiers in Pharmacology, 2019).

By inhibition is commonly meant the change of the read-out against control, counted positive when it falls. Usually IC50 stands for the concentration needed to halve the response being measured. Usually EC50 stands for the concentration needed to bring the measured effect to its halfway point.

The target of one assay is T1, hTMEM16A (abc) (Homo sapiens, UniProt Q5XXA6, DEL476-501).
T1 sequence (Q5XXA6 with tags, fused parts or gaps isoform Q5XXA6-5 DEL539-564): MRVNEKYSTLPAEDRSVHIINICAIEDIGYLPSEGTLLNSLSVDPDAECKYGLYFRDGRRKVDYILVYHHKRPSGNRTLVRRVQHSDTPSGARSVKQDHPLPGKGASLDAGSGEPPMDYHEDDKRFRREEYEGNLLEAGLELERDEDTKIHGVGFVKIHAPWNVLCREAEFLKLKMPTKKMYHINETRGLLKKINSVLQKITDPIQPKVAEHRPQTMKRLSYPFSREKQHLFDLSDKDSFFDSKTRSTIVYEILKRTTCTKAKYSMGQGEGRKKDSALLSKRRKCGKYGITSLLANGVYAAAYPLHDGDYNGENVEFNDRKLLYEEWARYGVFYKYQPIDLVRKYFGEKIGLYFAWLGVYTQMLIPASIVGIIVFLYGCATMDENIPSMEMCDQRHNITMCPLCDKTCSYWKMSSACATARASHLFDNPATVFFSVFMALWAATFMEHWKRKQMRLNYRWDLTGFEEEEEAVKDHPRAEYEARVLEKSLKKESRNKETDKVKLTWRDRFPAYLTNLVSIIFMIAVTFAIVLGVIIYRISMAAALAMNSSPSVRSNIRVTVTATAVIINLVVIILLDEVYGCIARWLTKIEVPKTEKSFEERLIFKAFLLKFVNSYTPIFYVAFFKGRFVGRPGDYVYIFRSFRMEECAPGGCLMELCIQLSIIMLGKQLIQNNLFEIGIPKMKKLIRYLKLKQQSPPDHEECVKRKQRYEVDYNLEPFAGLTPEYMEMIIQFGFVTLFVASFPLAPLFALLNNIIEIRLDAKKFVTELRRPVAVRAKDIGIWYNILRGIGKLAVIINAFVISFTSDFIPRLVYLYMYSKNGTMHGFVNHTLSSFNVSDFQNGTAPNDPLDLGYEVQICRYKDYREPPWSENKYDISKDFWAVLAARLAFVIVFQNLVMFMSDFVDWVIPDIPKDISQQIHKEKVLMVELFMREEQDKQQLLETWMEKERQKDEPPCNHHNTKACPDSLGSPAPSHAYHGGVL
The experiment in a line: TMEM16A halide-sensitive YFP (eYFP) high-throughput screening assay. Type of assay: cell-based. Also on record: expressed in transfected cells. Particulars: for remaining activity at 5 µM / inhibition at 5 µM: 5 μM compound; for remaining activity at 5 µM: POC 0 = full block by benzbromarone, read-out: POC (percent of control) halide-sensitive YFP response in HTS; for inhibition at 5 µM: read-out: % inhibition of halide-sensitive YFP response during HTS. The procedure:
The High-Throughput-Screening clone HEK293T:eYFP: TMEM16A(abc) stably expressing eYFP (H149Q,I153L) and human TMEM16A(abc) was generated by stable transfection followed by functional clone selection. HEK293T:eYFP (H149Q,I153L) was cultivated in propagation medium DMEM (PAN #P04-03550) containing 10% FBS (PAN #3302-P281402), 1x Pen/Strep (PAN #P06-07100), 1x L-glutamine (PAN #P04-80100), 10 mM HEPES (PAN #P05-01100) and 0.5 μg/ml puromycin (Sigma #P7255) and transfected with pIREShyg3:huTMEM16A(abc). Stable cell pool was generated by cultivation in propagation medium containing 0.5 μg/ml puromycin and 200 μg/ml hygromycin B for 20 days. Cell pool was then diluted in the same medium and seeded in 384-well microtiter plates. Grown clones were replicated into daughter plates using a CyBio Felix pipetting platform (Analytik Jena AG). Daughter plates were analyzed using the eYFP assay essentially as described in the HTS protocol below using a FLIPR-Tetra. Clones showing maximal quenching of eYFP fluorescence intensity after addition of trigger solution (assay buffer containing NaI and ionomycin) were selected for propagation from the mother plate and further characterized with regard to HTS assay development performance parameters including inhibition by the benchmark compound benzbromarone, S/B and relevant HTS quality control statistics (Z-factor, Z′-factor, RZ-factor, RZ′-factor). One clone was finally selected as HTS clone and used throughout the entire HTS campaign to identify TMEM16A antagonists.
For the HTS screen, the screening cell line HEK293T:eYFP(H149Q,I153L):TMEM16A(abc) stably expressing halide sensitive YFP (eYFP (H149Q,I153L)) and human TMEM16A(abc) were propagated in DMEM (PAN #P04-03550) containing 10% FBS (PAN #3302-P281402), 1x Pen/Strep (PAN #P06-07100), 1x L-glutamine (PAN #P04-80100), 10 mM HEPES (PAN #P05-01100), 0.5 μg/ml puromycin (Sigma #P7255), and 150 μg/ml hygromycin B (Life Technologies #10687-010) in Corning TC-treated flasks. Twenty four hours prior to the assay 11,000 cells were seeded per well in 30 μl assay plating medium [propagation medium containing 0.01% Pluronic F-68 (PAN #P08-2100)] in Corning CellBIND 384-Well Flat Clear Bottom Black Polystyrene Microplates (Corning #3683) and cultivated for 24 h at 37°C. Before initiating the fully automated and scheduled HTS sequence, cell plates were transferred to an incubator and stored at RT and 0% CO2. Library compounds were delivered in Greiner 384 PP plates (Greiner #784201) containing 1mM compound dissolved in DMSO in columns 1–22 and DMSO in columns 23 and 24 and were stored in a stacker at RT. Further dilutions of compounds were generated by fully automated liquid handling using a CyBio 384-well/25 μl pipetting head (Analytik Jena AG) by diluting 0.5 μl compound (1 mM in DMSO) in 20 μl assay buffer [1xHBSS (Life Technologies #14025050) containing 10 mM HEPES (PAN #P05-01100) and 0.01% Pluronic F-68 (PAN #P08-2100), adjusted to pH 7.4] in Greiner 384 PP plates (Greiner #784201). Intermediate compound plates contained 25 μM library compounds in assay buffer containing 2.5% DMSO in columns 1–22, assay buffer containing 2.5% DMSO as neutral control in column 23 and 100 μM Benzbromarone (Sigma #B5774) in assay buffer containing 2.5% DMSO in column 24 as ligand control (benchmark antagonist) and were stored in a stacker at RT. Simultaneous to compound dilution medium was aspirated from cell plates using a Biotek 405 microplate washer followed by washing the cells twice with 65 μl/well assay buffer. With the final aspiration of assay buffer, the residual volume was adjusted to 15 μl. […] Cell plates were incubated for 30 min at RT and 0% CO2. After incubation cell plates were transferred to a FLIPR-Tetra and 25 μl trigger solution [assay buffer containing 20 mM sodium iodide (Sigma #383112) and 4 μM ionomycin (Sigma #I0634; stock solution 10 mM in DMSO)] was added before reading iodide-quenching of eYFP fluorescence intensity. […]

Assay [1] deals with human bronchial smooth muscle cells. The experiment in a line: Histamine-induced depolarization of human bronchial smooth muscle cells (FLIPR membrane potential). Type of assay: cell-based. The conditions noted are these: donor 199524, 1 M histamine (so in the source), read-out: EC50 inhibition of histamine-induced depolarization (converted).
[2] abbreviates: HEK293T:eYFP:TMEM16A(abc), 30 min preincubation, 10 mM iodide, 2 μM ionomycin, read-out: IC50 in the eYFP HTS assay.

Read-outs that look alike come from different tables or passages of the source.

`N#Cc1c(C(F)(F)F)cc(O)n2c1nc1ccccc12` [1PBC]: on hTMEM16A (abc), the remaining activity at 5 µM came to 74.8% and the inhibition at 5 µM was 25.2%. Further, the IC50 at hTMEM16A (abc) (22-point dose-response, read-out: IC50, TMEM16A eYFP assay dose response of the HTS campaign) came out at 1050 nM.

Take `CCc1oc2ccccc2c1C(=O)c1cc(Br)c(O)c(Br)c1` [Benzbromarone]: in assay [1], the EC50 is 9900 nM.

On to `COc1cc([N+](=O)[O-])ccc1NC(=O)c1cc(Cl)c2ccccc2c1O` [Cpd 4], for which, at hTMEM16A (abc), the remaining activity at 5 µM is 61.1 ± 7.8% and the inhibition at 5 µM is 38.9%. For the same compound, the IC50 at hTMEM16A (abc) (setting [2]) is 970 nM.

For the compound `Oc1ccc(Cl)cc1Cc1cc(Cl)ccc1O` [Dichlorophen], the EC50 in assay [1] was 4100 nM.

As for `O=C(Nc1ncc([N+](=O)[O-])s1)c1cccs1` [NTTP], on hTMEM16A (abc) (supplement, read-out: IC50, TMEM16A (abc) eYFP HTS assay), the IC50 was 2840 nM.

For `O=C(Nc1ccc([N+](=O)[O-])cc1Cl)c1cc(Cl)ccc1O` [Niclosamide], on hTMEM16A (abc), the remaining activity at 5 µM was found to be 69 ± 3.3% and the inhibition at 5 µM was 31%. The IC50 on hTMEM16A (abc) (setting [2]) came to 140 nM.

`CCc1c(C)nc(SCC(=O)Nc2nc(-c3ccc(OC)cc3)cs2)[nH]c1=O` [T16Ainh-A01]: in assay [1], the EC50 was 3900 nM.
